Data on 79 compounds can be found in the METLIN SMRT retention time set (Domingo-Almenara et al. 2019).

This data set can be described thus: gradient 5% acetonitrile 3 min, to 50% in 2 min, to 85% in 15 min, held 3 min, 100 µL/min. The conditions noted are these: column: Zorbax Extend-C18 2.1 x 50 mm; eluents: water / acetonitrile, 0.1% formic acid. In a few lines:
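The system's dead and dwell volumes were 40 μL and 900 μL, with a Zorbax Extend-C18 column (2.1 × 50 mm, 1.8 μm) run at 100 μL/min in water and acetonitrile containing 0.1% formic acid each. Pure standards were analyzed in mixtures of ~100 molecules by HPLC–quadrupole time-of-flight mass spectrometry in positive and negative ionization mode. Retention time was assigned from computationally picked, manually inspected adduct peaks.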
Take `CN(C)c1ccc(CNC(=O)Cc2cn(C)c3ncccc23)cc1`: the RP-LC retention time amounted to 704 s.

Turning to `CCOc1ccc(NC(=O)N2CCC(n3cnc4cc(F)ccc4c3=O)CC2)cc1`, the RP-LC retention time stood at 797 s.

As for `Cn1c(CNC(=O)C2CCC2)nc2c1CN(S(=O)(=O)c1ccc(Cl)s1)CC2`, the RP-LC retention time amounted to 666 s.

Turning to `CCN1c2ccccc2C(=O)NC12CCN(C(=O)c1ccc(F)cc1)CC2`, the RP-LC retention time came out at 756 s.

In turn, `COc1ccc(NC(=O)N2CCC(n3cnc4ccc(Cl)cc4c3=O)CC2)cc1` displayed an RP-LC retention time of 802 s.

`CCc1noc(NC(C)=O)c1-c1ccc(OC)c(S(=O)(=O)N2CCN(c3ccccc3)CC2)c1` gave an RP-LC retention time of 895 s.

`COC(=O)c1ccc(NC(=O)C2CCCN(S(=O)(=O)c3ccc(OC)c(C)c3)C2)cc1` (centres undefined) came in with an RP-LC retention time of 1000 s.

`COc1ccc(-c2cc3c4nnc(SCC(=O)Nc5cccc(Br)c5)n4ccn3n2)cc1` registered an RP-LC retention time of 1320 s.

On to `O=C(C(=O)N1CCOCC1)c1c(-c2ccccc2)cc2ccccn12`, for which the RP-LC retention time worked out at 798 s.

Compound `CCn1c(C(=O)NCCCN2CCCCC2C)c(N2CCCC2=O)c2cc(F)ccc21` (centres undefined) came in with an RP-LC retention time of 654 s.

`Cc1ccc(S(=O)(=O)n2c(N)nc3ccccc32)cc1` showed an RP-LC retention time of 825 s.

As to `Cc1nnc(-c2cc(NC(=O)c3ccccc3Br)c(C)s2)o1`, the RP-LC retention time worked out at 858 s.

Take `O=C(Nc1ccc2c(c1)C(=O)Nc1ccccc1O2)c1ccc2nsnc2c1`: the RP-LC retention time was 773 s.

The compound `CCc1nc2cc(-c3noc(-c4ccc(F)cc4)n3)ccc2o1` gave an RP-LC retention time of 1190 s.

In the case of `CCN1C(=O)c2cccnc2Sc2cc(NC(=O)c3ccc(C)c(F)c3)ccc21`, the RP-LC retention time came out at 896 s.

Consider `O=C(Nc1nc(-c2ccc([N+](=O)[O-])cc2)cs1)c1ccc(COc2c(F)c(F)cc(F)c2F)o1`, for which the RP-LC retention time is 1190 s.

`CN1C(=O)c2cc(C(=O)NCc3ccc(F)cc3)nn2CC1(C)C(=O)NCc1ccc(F)cc1` (centres undefined) displayed an RP-LC retention time of 760 s.

For `CCNC(=O)N1CC(n2cc(C(=O)NCCCOC)nn2)C1`, the RP-LC retention time was 580 s.

`C=CCc1ccccc1OCC(O)CN1CCC(C)CC1` (centres undefined) displayed an RP-LC retention time of 588 s.

`Cc1ccc(NC(=O)C2CCC(=O)N2S(=O)(=O)c2ccc(C)c(C)c2)cc1C` (centres undefined) displayed an RP-LC retention time of 1040 s.

On to `Cc1ccc(C)c(NC(=O)CSc2nccc(N3CCN(c4cc(C)ccc4C)CC3)n2)c1`, for which the RP-LC retention time was 989 s.

Regarding `O=C(CSc1nc2ncccc2n2cccc12)N1CCN(c2ccccn2)CC1`, the RP-LC retention time is 592 s.

`Cc1ccccc1-c1nnc(SCC(=O)N2CCC(C)CC2)o1`: the RP-LC retention time came to 1020 s.

Turning to `CC1CCN(C(=O)c2cc(S(=O)(=O)N3CCC(C(=O)N4CCCCC4)CC3)cn2C)CC1`, the RP-LC retention time came out at 796 s.

In the case of `COc1ccccc1NC(=O)N1CCC(CNC(=O)CCSc2ccccc2)CC1`, the RP-LC retention time stood at 771 s.

`CC1CCN(c2cc(-n3cnc(C(=O)Nc4ccc(N(C)C)cc4)c3)ncn2)CC1` showed an RP-LC retention time of 751 s.

For the compound `COc1ccc(S(=O)(=O)N2CCC(c3noc(-c4ccccc4C)n3)CC2)cc1`, the RP-LC retention time was found to be 1150 s.

For `CN(CCc1noc(-c2ccc(F)cc2)n1)C(=O)Nc1ccc(F)cc1`, the RP-LC retention time amounted to 864 s.

For the compound `O=C(Cc1csc(Nc2cccc(Cl)c2)n1)N1CCN(C(=O)c2ccco2)CC1`, the RP-LC retention time was found to be 718 s.

For `O=C(Cc1cc(-c2cc3ccccc3o2)on1)NCCC1=CCCCC1`, the RP-LC retention time came to 1060 s.

The compound `COCC1CN(C2CCC2)CC12CCN(C(=O)C(C)C)CC2` (centres undefined) had an RP-LC retention time of 584 s.

The compound `O=S(=O)(c1ccc(Cl)c(-c2nnc(-c3ccccc3)o2)c1)N1CCN(c2ccccn2)CC1` displayed an RP-LC retention time of 802 s.

As for `Fc1ccc(-c2noc(-c3ccc(NCC4CCCO4)nc3)n2)cc1` (centres undefined), the RP-LC retention time worked out at 940 s.

In the case of `CCNc1ncnc2sc3c(c12)CCN(C(=O)CCOC)C3`, the RP-LC retention time was determined as 610 s.

In turn, `Cc1ccc(-c2noc(C3CCCN3C(=O)C3CC(=O)N(c4ccc(C)c(C)c4)C3)n2)cc1` (centres undefined) yielded an RP-LC retention time of 1050 s.

`COc1ccc(-c2[nH]c3ccccc3c2C(C[N+](=O)[O-])c2cccs2)cc1OC` (centres undefined) returned an RP-LC retention time of 960 s.

Consider `COc1ccc(CNC(=O)c2c(O)c3cccnc3[nH]c2=O)cc1OC`, for which the RP-LC retention time was determined as 804 s.

`COc1ccccc1OCC(=O)N1CCc2cc(-c3csc(C)n3)ccc21`: the RP-LC retention time is 954 s.

`O=C(Nc1ccc(Cl)cc1)N1CCC(N2CCN(Cc3ccc(F)cc3)C(=O)C2=O)CC1`: the RP-LC retention time came out at 799 s.

`CC(=O)N1CCC2(CC1)CC(CC(=O)N(C)C)CCO2` (centres undefined) gave an RP-LC retention time of 587 s.

`Cc1ccc(NC(=O)Cn2nc3cc(C)nc(-c4ccccc4)n3c2=O)c(C)c1`: the RP-LC retention time came to 832 s.

Take `O=C(NC1CCCCC1)C1CCCN(S(=O)(=O)Cc2ccccc2Cl)C1` (centres undefined): the RP-LC retention time came to 967 s.

`Cc1csc(NC(=O)C2CC(=O)N(c3n[nH]c4cccc(F)c34)C2)n1` (centres undefined) registered an RP-LC retention time of 664 s.

`O=C(NC1CCN(c2cc(-c3ccccc3)[nH]n2)C1)c1ccc2c(c1)OCO2` (centres undefined) registered an RP-LC retention time of 648 s.

With `Cc1c(Cl)cccc1NC(=O)Cn1c(=O)n(-c2ccccc2)c(=O)c2c1cc(C)n2C`, the RP-LC retention time was 927 s.

The compound `Cn1cc(CCN2CCC(C(=O)NCc3ccc(F)cc3)CC2)c2cccnc21` came in with an RP-LC retention time of 595 s.

Turning to `CCn1c(=O)sc2cc(S(=O)(=O)N3CCC(C(=O)NCc4ccc(C)o4)CC3)ccc21`, the RP-LC retention time came to 861 s.

`Cc1nn(-c2ccccc2)c2c1nc(CCC(=O)N1CCN(c3ccccn3)CC1)c(=O)n2C` returned an RP-LC retention time of 601 s.

The compound `CCn1cc(S(=O)(=O)NCc2ccc(F)cc2Cl)c2cccnc21` yielded an RP-LC retention time of 855 s.

For the compound `Cc1ccc(-c2csc(NC(=O)c3ccc4c(c3)OCO4)n2)cc1`, the RP-LC retention time worked out at 1060 s.

Regarding `CC1CCN(S(=O)(=O)N2CCC(C(=O)N3CCC(Cc4nncn4C(C)C)CC3)CC2)CC1`, the RP-LC retention time was determined as 720 s.

Compound `Cc1ccc(C)c(N2CCN(C(=O)c3cn4ccc(C)cc4n3)CC2)c1` displayed an RP-LC retention time of 759 s.

Compound `COc1ccc(-c2cc3n(n2)CCCN(C(=O)CCC(=O)c2ccc(F)cc2)C3)cc1` displayed an RP-LC retention time of 879 s.

Compound `O=C(NCCc1ccco1)c1ccc2cnn(Cc3ccc(F)cc3)c2c1` registered an RP-LC retention time of 873 s.

Compound `CCN1CCN(c2ccc(NC(=O)c3ccc(C)c(N4CCCC4=O)c3)cn2)C1=O` displayed an RP-LC retention time of 600 s.

Take `COC(=O)c1ccc(NC(=O)N(C)CCc2noc(-c3ccccc3)n2)cc1`: the RP-LC retention time came to 840 s.

For the compound `Cc1nc2cc3c(cc2n1CC(=O)NCc1ccccc1Cl)OCCO3`, the RP-LC retention time worked out at 645 s.

`Cc1ccc(NC(=O)C2CCCN(S(=O)(=O)c3c[nH]c(C(=O)N4CCCC4)c3)C2)c(C)c1` (centres undefined) had an RP-LC retention time of 814 s.

The compound `CCS(=O)(=O)Nc1ccc(C2(C(=O)NCc3ccc(F)cc3F)CCCCC2)cc1` had an RP-LC retention time of 972 s.

`CCCN1C(=O)COc2ccc(-c3noc(-c4ccc5cc[nH]c5c4)n3)cc21` came in with an RP-LC retention time of 1110 s.

`Cc1cccc(C(=O)NCC2CCCN(S(=O)(=O)c3ccc4c(c3)CCCC4)C2)c1` (centres undefined) came in with an RP-LC retention time of 1150 s.

Compound `Cn1c(=O)c2c(NC(=O)c3ccco3)ccnc2n(C)c1=O` showed an RP-LC retention time of 757 s.

In the case of `CC(=O)N1CCN(c2nc3c(s2)CC(C(=O)N2CCC(C)CC2)CC3)CC1` (centres undefined), the RP-LC retention time worked out at 537 s.

As to `O=C(c1ccc(-c2noc(C3CC3)n2)cc1)N1CCCN(c2nc3ncccc3o2)CC1`, the RP-LC retention time was determined as 760 s.

Consider `Cc1cc(C)c(NC(=O)Cn2nc3c(N4CCCCCC4)nccn3c2=O)c(C)c1`, for which the RP-LC retention time stood at 757 s.

Take `COc1ccc(OC)c(C(O)CN2CCN(c3cccc(C)c3)CC2)c1` (centres undefined): the RP-LC retention time is 712 s.

Consider `O=C(c1cc(-c2ccco2)[nH]n1)N1CCN(c2ccccn2)CC1`, for which the RP-LC retention time was found to be 583 s.

In the case of `O=C1[C@H]2CN(Cc3ccccc3)C[C@H]2C(=O)N1CCc1ccccc1`, the RP-LC retention time stood at 713 s.

In the case of `CCOc1ccc(NC(=O)c2cn(-c3cc(N4CCCCC4C)ncn3)cn2)cc1` (centres undefined), the RP-LC retention time came out at 1110 s.

`COC(=O)c1ccc(C(=O)OC)c(NC(=O)c2cnc3n(c2=O)CCS3)c1` came in with an RP-LC retention time of 700 s.

`Cc1cccc(OCC(=O)N(Cc2ccc(N(C)C)cc2)C2CCS(=O)(=O)C2)c1C` (centres undefined) displayed an RP-LC retention time of 798 s.

Compound `CCCCC(=O)N(C)CC1CCOCC1` registered an RP-LC retention time of 686 s.

The compound `Cc1ccc(-c2nnc(CC(=O)NCC3CCCO3)o2)cc1` (centres undefined) returned an RP-LC retention time of 667 s.

`O=C(NC1CCCC1)C1CCCN(c2ccc(=O)n(-c3cccc(F)c3)n2)C1` (centres undefined) yielded an RP-LC retention time of 784 s.

Turning to `CC1(C(=O)NC2CCCCCC2)CN(S(C)(=O)=O)CC(=O)N1Cc1cccc(F)c1` (centres undefined), the RP-LC retention time was 885 s.

Take `COCCN1C(=O)Cc2ccccc2C1C(=O)NC(C)C` (centres undefined): the RP-LC retention time is 652 s.

In the case of `O=C(Nc1ccccc1)N1CCC(n2cnc3ccc(F)cc3c2=O)CC1`, the RP-LC retention time was 742 s.

With `CCc1nc(-c2csc(S(=O)(=O)N3CCCC(C(=O)Nc4cc(C)cc(C)c4)C3)c2)no1` (centres undefined), the RP-LC retention time is 1090 s.

As for `O=C(NC1CCCC1)N1c2ccccc2CC1c1nc(C2CC2)no1` (centres undefined), the RP-LC retention time is 972 s.
